# Tests used:
# [1] = Thermodynamic stability comparison, slurry of Form I and Form II mixture; format: physicochemical; details: 1 g each of Form I and Form II in 10 mL methanol, 60° C., 20 h, powder X-ray diffraction
# Description: Then the suspension was filtered with a Buchner funnel and paper disk, and dried under a vacuum oven.
# [2] = Hygroscopicity, saturated salt solution method; format: physicochemical; details: 10 days, 25° C.; for Stability under the testing humidity conditions: crystalline form unchanged; for Hygroscopicity (in words): saturated NaCl solution
# Method: The desiccator was closed and left standing for 10 days at 25° C. Then the samples were taken out and weighed again, and the weight gain was calculated.
# [3] = Pharmacokinetics study in mice; format: in vivo; details: male, ICR; mouse plasma, single oral dose 10 mg/kg
# Method: Experimental Method: The pharmacokinetics of the test compounds were studied with male ICR mice (n=6 for each group, weight 20˜30 g) after a single intraveneous (i.v.) and oral (p.o.) dosing at 2.5 and 10 mg/kg, respectively. For i.v. dosing formulation, the test compound was dissolved in DMSO (0.25%)-solutol (10%)-ethanol (10%)-physiological saline (79.75%) at the concentration of 0.25 mg/mL. And the p.o. dosing formulation (1 mg/mL) was prepared with 0.5% CMC-Na. After i.v. or p.o. dosing, blood samples were collected via the ophthalmic vein at 0 (pre-dose), 5, 15, 30 min and 1, 1.5, 2, 4, 8, 24 h, anti-coagulated with heparin-Na. After centrifugation, plasma samples were separated and protein precipitated with acetonitrile (containing internal standard). The concentration of the testing compounds in these plasma samples were then determined by LC/MS/MS.
# [4] = target: T1, recombinant human KDR catalytic domain (Homo sapiens, UniProt P35968); assay: KDR kinase inhibition, Z'-LYTE assay kit; format: biochemical; details: 10 μM ATP, 1 μM Tyr1 peptide, 25° C., 1 hour
# T1 construct: 300 ng/mL of recombinant human KDR catalytic domain
# T1 sequence (P35968 834-1162 limits assumed): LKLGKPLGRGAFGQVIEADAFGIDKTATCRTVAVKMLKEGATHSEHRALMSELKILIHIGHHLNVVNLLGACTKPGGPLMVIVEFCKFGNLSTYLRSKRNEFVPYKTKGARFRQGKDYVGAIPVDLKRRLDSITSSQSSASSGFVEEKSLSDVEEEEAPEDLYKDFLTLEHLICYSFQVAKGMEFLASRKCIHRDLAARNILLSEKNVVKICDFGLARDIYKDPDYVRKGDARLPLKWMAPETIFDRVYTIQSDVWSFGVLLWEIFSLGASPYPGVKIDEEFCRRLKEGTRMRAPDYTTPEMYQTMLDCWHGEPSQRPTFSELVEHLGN
# Method: The KDR kinase inhibition activity of the above three compounds is tested using the Z-Lyte assay kit.
# Z′-LYTE™ Tyr1 peptide (Invitrogen, Cat. PV3190) is used to test the KDR kinase inhibitory activity of the above three compounds. The testing system contains 300 ng/mL of recombinant human KDR catalytic domain, 10 μM of ATP, 1 μM of substrate peptide, and a test compound at a series of different concentrations in 384-well plate (Thermo Labsystems, Cat. 7805); total volume is 10 μL. The enzymatic inhibition proceeds at room temperature (25° C.) for 1 hour on the shaker, followed by addition of 5 μL of enhancer and incubation for an additional 1 hour at room temperature on the shaker. 5 μL of stop solution is added to stop the reaction. The KDR kinase inhibition activity of a test compound is calculated based on the method recommended by the manufacturer. The IC50 values of the KDR kinase inhibition activity are calculated using XLfit software.
# (1) Dilution of the test compounds: each of the above three compounds is dissolved in DMSO to prepare a […] stock solution and stored in −20° C. freezer. The stock solution is diluted to the four times concentration of the desired test concentration with 8% DMSO before use. […]
# (7) Kinase inhibition: Add the following components in turn in a 384-well plate. […] Seal the plate with aluminum foil and allow the reaction to proceed at room temperature (25° C.) for 1 hour on the shaker (250 rpm). • e) Dilution of enhancer solution (right before use): according to the recommendation of manufacturer, dilute enhancer stock with development dilution buffer 128-fold. • f) Fluorescence enhancement: add 5 μL/well of the diluted enhancer solution in all wells, briefly spin at 1000 rpm, re-seal the plate and let the reaction proceed at room temperature for an additional hour on the shaker. • g) Add 5 μL/well of stop solution to all wells, briefly spin at 1000 rpm. Mix at room temperature for 2 minutes on the shaker, and read florescence signals on Victor3 (Perkin Elmer) at excitation 400 nm, emission 445 nm/530 nm. […]
# hERG channels = target: T2, hERG channels (Homo sapiens, UniProt Q12809); assay: hERG whole-cell patch clamp in CHO cells stably transfected with hERG cDNA; format: cell-based; details: CHO cells expressing hERG, tail current; read-out: hERG current inhibition IC50
# T2 construct: expressed in transfected cells; host or cells: CHO
# T2 sequence (Q12809 whole entry): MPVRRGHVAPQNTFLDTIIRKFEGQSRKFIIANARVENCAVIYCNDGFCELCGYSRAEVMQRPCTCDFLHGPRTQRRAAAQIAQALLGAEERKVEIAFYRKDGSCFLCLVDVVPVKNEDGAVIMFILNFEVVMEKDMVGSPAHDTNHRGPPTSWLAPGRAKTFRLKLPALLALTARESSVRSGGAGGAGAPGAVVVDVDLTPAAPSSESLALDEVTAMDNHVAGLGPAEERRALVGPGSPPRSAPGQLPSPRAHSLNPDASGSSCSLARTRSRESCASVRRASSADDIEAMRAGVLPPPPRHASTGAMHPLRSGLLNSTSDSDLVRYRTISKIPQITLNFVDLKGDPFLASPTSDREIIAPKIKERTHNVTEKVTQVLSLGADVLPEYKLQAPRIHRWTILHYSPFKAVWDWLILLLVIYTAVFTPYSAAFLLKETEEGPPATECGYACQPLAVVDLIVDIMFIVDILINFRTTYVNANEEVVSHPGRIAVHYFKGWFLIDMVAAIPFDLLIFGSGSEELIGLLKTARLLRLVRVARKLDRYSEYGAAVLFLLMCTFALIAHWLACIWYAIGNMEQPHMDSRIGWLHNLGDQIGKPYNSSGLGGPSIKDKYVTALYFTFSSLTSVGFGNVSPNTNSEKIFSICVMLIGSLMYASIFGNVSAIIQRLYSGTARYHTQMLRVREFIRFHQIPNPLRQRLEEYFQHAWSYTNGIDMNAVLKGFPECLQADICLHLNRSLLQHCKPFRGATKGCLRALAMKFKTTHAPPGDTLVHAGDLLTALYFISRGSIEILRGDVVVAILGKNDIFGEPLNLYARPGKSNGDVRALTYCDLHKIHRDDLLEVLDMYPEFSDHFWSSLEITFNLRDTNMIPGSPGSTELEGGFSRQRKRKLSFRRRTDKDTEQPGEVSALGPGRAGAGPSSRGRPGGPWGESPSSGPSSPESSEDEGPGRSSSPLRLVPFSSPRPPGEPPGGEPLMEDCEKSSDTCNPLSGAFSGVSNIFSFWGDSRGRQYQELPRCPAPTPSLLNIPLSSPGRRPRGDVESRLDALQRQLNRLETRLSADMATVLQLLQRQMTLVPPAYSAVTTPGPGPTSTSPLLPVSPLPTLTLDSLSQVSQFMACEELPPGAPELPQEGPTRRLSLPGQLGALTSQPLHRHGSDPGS
# Method: A CHO cell line stably transfected with hERG cDNA and expressing hERG channels was used for the study. Cells were cultured in a medium comprising:
# Before testing, cells were harvested using an Accumax (Innovative Cell Technologies).
# Whole-cell recording was performed using a 700B (Axon Instruments). The cells were voltage clamped at a holding potential of −80 mV. The hERG current was activated by depolarizing at +20 mV for 2 sec, after which the current was taken back to −50 mV for 2 sec to remove the inactivation and observe the deactivating tail current. The first step at −50 mV was used as a baseline for measuring the tail current peak amplitude.
# Test compound was prepared as a 10 mM DMSO stock solution in a glass vial. The stock solution was mixed vigorously for 10 minute at room temperature. The stock solution was diluted in a glass vial using External Solution; the dilution was prepared no longer than 30 minutes before use. Equal amounts of DMSO (0.1%) were present at final dilution.
# After achieving whole-cell configuration, the cells were monitored for 90 sec to assess stability and washed with external solution for 66 sec. The voltage protocol described above was then applied to the cells every 20 sec throughout the whole procedure. […]
# Data were analyzed using Clampfit (both by Axon Instruments) and Origin 7 (Originlab Corporation).
# FGFR1 kinase = target: T3, FGFR1 kinase (Homo sapiens, UniProt P11362); assay: FGFR1 kinase activity assay, Transcreener FP; format: biochemical; details: 10 μM ATP, 60 minutes, room temperature
# T3 construct: purchased Invitrogen PV3146
# T3 sequence (P11362 22-822): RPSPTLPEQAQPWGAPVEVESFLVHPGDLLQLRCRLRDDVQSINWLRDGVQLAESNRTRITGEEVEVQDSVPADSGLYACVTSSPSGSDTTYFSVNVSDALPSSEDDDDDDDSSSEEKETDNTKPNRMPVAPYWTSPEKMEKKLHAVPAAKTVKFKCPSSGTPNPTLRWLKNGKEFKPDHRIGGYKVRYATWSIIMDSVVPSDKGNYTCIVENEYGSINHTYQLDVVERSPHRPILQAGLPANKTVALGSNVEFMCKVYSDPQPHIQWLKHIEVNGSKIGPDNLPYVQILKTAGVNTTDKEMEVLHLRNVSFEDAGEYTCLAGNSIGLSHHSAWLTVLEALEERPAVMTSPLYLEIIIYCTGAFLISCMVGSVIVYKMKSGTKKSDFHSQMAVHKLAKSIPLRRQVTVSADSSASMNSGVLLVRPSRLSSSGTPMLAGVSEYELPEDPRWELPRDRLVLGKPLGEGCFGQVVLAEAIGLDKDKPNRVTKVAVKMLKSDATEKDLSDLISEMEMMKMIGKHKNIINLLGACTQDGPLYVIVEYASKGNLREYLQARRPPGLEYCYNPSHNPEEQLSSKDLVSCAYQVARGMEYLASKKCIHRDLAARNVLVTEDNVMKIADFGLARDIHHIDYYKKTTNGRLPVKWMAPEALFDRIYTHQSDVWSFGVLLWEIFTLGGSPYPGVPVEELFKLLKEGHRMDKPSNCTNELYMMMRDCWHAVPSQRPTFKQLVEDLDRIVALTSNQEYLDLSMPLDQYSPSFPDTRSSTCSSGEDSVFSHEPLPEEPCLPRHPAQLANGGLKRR
# Method: The Transcreener FP technology of Bellbrook Labs is used in the FGFR1 kinase activity assay. The kinase reaction was done in 96-well half area black plate (Greiner, Cat. 675076). In each well, were added 5 μL of test compounds in 5% DMSO, 10 μL of 0.3 ng/μL FGFR1 kinase (Invitrogen, PV3146) diluted in assay buffer. The reaction was started by the addition of 10 of 62.5 ng/μL poly (Glu:Tyr, 4:1) substrate (Sigma, P0275) and 25 μmol/L of ATP mixture, and incubated for 60 minutes at room temperature. The final conditions for kinase assay were: 10 μM of ATP, 0.12 ng/μL of FGFR1 kinase, 25 ng/μL of substrate, 53.6 mmol/L of HEPES (pH 7.5), 21.6 mmol/L of MgCl2, 0.536 mmol/L of MnCl2, 1 mmol/L of DTT and 0.01% Triton X-100, 1% DMSO.
# At the same time, an ADP standard curve was performed. The standard curve mimics a kinase reaction in the absence of test compound, kinase, and lipid substrate. The standard curve contained 12 concentration points, and total [ATP+ADP] ranged from 10 μM to 0.01 μM. […]
# After reacting for 60 minutes at room temperature, 25 μL of transcreener Kinase Kit reagent—ADP Detection Mix—(Bellbrook Labs) was added and reacted for an additional 1.0 hours. The plates were then read in Tecan Infinite F500 at an excitation of 610 nm and an emission of 670 nm. […] The inhibition of test compound on ADP production was calculated based on ADP concentration calculated from standard curve. […]
IC50 [4],SMILES,"Thermodynamic stability, form after slurry [1]",Stability under the testing humidity conditions [2],Hygroscopicity (in words) ([2]; listed as Form I sample),AUC [3],Cmax [3],IC50 (hERG channels),IC50 (FGFR1 kinase),Hygroscopicity (in words) [2]
–,"Cc1cc2cc(Oc3ccnc(Nc4cccc(CS(=O)(=O)NCCN(C)C)c4)n3)ccc2[nH]1 [Form I, Form I N-(2-(dimethylamino)ethyl)-1-(3-((4-((2-methyl-1H-indol-5-yl)oxy)pyrimidin-2-yl)amino)phenyl)-methanesulfonamide]",physically and/or thermodynamically more stable than Form II,stable,non-hygroscopic,–,–,–,–,–
38 nM,"CNS(=O)(=O)Cc1cccc(Nc2nccc(Oc3ccc4[nH]c(C)cc4c3)n2)c1 [Compound B, N-methyl-1-(3-((4-((2-methyl-1H-indol-5-yl)oxy)pyrimidin-2-yl)amino)phenyl)methanesulfonamide, reference compound]",–,–,–,26 ng·h/mL,20 ng/mL,–,–,–
111 nM,"Cc1cc2c(F)c(Nc3ccnc(Nc4cccc(OCCN5CCOCC5)c4)n3)ccc2[nH]1 [compound of Formula C, N^4-(4-fluoro-2-methyl-1H-indol-5-yl)-N^2-(3-(2-morpholinoethoxy)phenyl)pyrimidine-2,4-diamine, reference compound]",–,–,–,–,–,0.547 µM,–,–
–,"Cc1cc2cc(Oc3ccnc(Nc4cccc(CS(=O)(=O)NCCN(C)C)c4)n3)ccc2[nH]1 [Form II, Form II N-(2-(dimethylamino)ethyl)-1-(3-((4-((2-methyl-1H-indol-5-yl)oxy)pyrimidin-2-yl)amino)phenyl)methanesulfonamide]",transformed to the Form I,stable,–,–,–,–,–,slightly hygroscopic

SMILES,IC50 [4],"Thermodynamic stability, form after slurry [1]",Stability under the testing humidity conditions [2],Hygroscopicity (in words) ([2]; listed as Form I sample),AUC [3],Cmax [3],IC50 (hERG channels),IC50 (FGFR1 kinase),Hygroscopicity (in words) [2]
"Cc1cc2cc(Oc3ccnc(Nc4cccc(CS(=O)(=O)NCCN(C)C)c4)n3)ccc2[nH]1 [Compound A, N-(2-(dimethylamino)ethyl)-1-(3-((4-((2-methyl-1H-indol-5-yl)oxy)pyrimidin-2-yl)amino)phenyl)-methanesulfonamide]",21 nM,–,–,–,397 ng·h/mL,138 ng/mL,6.8 µM,53 nM,–
